The values below come from ChEMBL document CHEMBL5303766, “Data for DCP probe FHT-2344” (2022).

Test [1] addresses Sodium-dependent noradrenaline transporter (Homo sapiens, UniProt P23975). The settings on record: Compound concentration 10.0 uM.
For test [2], the target named is Cyclin-dependent kinase-like 1 (Homo sapiens) (UniProt Q00532). The experiment in a line: CDKL1 SGC Tm panel (DSF). The settings on record: for ΔTm: Compound concentration 10.0 uM.
Test [3] addresses T1, Mitogen-activated protein kinase kinase kinase 5 (Homo sapiens) (UniProt Q99683).
T1 sequence (whole entry): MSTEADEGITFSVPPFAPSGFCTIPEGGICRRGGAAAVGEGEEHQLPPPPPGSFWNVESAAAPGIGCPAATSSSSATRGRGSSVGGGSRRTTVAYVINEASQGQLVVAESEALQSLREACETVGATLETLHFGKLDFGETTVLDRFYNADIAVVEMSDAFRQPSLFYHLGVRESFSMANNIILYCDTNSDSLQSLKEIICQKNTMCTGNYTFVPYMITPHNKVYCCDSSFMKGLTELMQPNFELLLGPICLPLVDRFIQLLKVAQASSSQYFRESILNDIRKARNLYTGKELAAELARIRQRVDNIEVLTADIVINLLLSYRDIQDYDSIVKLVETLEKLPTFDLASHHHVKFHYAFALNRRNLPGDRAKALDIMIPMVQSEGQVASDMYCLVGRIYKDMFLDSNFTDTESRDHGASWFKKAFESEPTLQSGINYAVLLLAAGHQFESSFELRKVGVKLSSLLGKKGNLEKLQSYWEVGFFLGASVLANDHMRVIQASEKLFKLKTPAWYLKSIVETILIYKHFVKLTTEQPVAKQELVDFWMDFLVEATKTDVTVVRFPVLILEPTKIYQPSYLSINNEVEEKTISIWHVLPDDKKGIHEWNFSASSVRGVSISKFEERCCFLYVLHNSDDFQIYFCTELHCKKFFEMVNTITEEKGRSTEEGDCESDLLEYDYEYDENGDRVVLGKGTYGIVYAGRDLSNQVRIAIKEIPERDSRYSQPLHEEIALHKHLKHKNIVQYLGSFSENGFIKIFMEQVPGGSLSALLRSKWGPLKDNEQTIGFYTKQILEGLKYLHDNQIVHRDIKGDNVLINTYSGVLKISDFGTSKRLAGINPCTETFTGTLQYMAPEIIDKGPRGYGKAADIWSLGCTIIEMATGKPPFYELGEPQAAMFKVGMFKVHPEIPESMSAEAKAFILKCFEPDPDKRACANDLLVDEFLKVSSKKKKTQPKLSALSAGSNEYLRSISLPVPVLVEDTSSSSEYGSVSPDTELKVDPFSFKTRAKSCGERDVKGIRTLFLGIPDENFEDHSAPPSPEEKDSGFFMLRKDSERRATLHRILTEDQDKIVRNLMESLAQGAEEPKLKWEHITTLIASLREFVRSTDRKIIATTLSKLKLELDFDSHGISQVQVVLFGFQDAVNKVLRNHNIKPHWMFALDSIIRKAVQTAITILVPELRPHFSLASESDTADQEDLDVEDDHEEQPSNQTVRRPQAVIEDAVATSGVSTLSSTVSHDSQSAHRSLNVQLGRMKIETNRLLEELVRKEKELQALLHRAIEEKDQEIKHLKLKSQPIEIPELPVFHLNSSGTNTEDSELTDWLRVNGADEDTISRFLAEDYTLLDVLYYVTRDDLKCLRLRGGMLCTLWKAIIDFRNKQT
Kind of test: MAP3K5 SGC Tm panel (DSF). Particulars: for ΔTm: Compound concentration 10.0 uM.

Test [4] concerns the target GABA-A receptor; anion channel (Rattus norvegicus) (UniProt O09028+P15431+P18506+P18508+P19969+P20236+P23574+P23576+P28471+P28473+P30191+P62813+P63079+P63138+Q91ZM7+Q9ES14). Particulars: Compound concentration 10.0 uM.
The target of test [5] is T2, Tyrosine-protein kinase Mer (Homo sapiens) (UniProt Q12866).
T2 sequence (whole entry): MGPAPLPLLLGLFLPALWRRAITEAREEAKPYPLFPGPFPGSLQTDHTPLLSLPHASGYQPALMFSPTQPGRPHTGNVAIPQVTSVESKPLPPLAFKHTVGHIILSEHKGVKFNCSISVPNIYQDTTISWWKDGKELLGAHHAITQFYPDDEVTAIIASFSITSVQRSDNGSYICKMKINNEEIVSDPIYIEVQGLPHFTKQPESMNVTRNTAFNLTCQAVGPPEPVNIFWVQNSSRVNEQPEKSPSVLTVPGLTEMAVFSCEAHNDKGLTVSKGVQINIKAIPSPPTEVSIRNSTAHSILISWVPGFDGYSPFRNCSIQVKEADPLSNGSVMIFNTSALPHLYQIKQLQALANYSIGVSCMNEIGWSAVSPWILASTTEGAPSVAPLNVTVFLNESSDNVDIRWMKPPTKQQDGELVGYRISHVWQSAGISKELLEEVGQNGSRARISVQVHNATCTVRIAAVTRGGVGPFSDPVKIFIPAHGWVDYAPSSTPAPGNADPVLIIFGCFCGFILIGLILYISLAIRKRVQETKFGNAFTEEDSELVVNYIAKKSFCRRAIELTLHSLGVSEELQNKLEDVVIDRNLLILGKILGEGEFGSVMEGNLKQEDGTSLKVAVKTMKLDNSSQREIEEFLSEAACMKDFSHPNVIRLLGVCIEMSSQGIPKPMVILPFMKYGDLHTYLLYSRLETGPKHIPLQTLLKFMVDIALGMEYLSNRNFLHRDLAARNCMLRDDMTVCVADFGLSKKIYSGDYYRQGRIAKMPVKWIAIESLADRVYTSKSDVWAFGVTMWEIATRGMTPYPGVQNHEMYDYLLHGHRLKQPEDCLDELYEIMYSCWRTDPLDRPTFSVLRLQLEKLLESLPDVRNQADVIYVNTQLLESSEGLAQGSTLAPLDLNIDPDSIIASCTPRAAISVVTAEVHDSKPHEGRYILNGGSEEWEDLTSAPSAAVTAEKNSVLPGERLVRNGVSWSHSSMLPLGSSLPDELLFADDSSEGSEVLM
The experiment in a line: MERTK SGC Tm panel (DSF). Particulars: for ΔTm: Compound concentration 10.0 uM.

In test [6] the target is BMP-2-inducible protein kinase (Homo sapiens) (UniProt Q9NSY1). Kind of test: BMP2K SGC Tm panel (DSF). The settings on record: for ΔTm: Compound concentration 10.0 uM.
Chain of BMP-2-inducible protein kinase (Homo sapiens) (Q9NSY1 whole entry, looked up): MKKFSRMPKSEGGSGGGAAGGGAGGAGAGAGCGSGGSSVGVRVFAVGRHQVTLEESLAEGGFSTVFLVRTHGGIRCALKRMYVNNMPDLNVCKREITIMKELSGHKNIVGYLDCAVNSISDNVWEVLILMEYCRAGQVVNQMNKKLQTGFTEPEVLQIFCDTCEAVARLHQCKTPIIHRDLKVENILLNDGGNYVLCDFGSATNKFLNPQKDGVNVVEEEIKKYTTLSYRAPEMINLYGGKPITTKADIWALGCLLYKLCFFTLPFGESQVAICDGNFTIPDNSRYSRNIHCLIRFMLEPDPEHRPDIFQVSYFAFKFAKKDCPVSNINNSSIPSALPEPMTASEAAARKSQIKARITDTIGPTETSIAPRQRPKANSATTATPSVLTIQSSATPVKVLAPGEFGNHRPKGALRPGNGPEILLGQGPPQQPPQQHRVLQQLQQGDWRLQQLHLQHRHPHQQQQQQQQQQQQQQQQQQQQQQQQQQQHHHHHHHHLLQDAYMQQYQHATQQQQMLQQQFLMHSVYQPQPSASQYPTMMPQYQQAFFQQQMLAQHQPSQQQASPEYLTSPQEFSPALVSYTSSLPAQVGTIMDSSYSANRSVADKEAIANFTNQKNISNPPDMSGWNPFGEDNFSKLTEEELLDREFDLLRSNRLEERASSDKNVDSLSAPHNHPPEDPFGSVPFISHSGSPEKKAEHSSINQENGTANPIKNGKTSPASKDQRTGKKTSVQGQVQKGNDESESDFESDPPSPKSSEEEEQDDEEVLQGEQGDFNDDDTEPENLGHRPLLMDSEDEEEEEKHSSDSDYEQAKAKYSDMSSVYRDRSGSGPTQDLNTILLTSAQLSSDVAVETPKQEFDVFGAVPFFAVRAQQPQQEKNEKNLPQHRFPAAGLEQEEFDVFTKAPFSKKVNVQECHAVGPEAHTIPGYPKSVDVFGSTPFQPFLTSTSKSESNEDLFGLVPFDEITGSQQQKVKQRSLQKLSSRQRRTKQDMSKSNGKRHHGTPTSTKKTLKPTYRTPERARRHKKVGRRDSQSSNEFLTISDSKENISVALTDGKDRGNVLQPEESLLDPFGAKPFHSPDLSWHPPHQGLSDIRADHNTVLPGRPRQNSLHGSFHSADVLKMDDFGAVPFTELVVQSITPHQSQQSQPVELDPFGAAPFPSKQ
Test [7] has as its target Serine/threonine-protein kinase pim-1 (Homo sapiens) (UniProt P11309). Kind of test: PIM1 SGC Tm panel (DSF). Particulars: for ΔTm: Compound concentration 10.0 uM.
Test [8] has as its target Vascular endothelial growth factor receptor 1 (Homo sapiens) (UniProt P17948). Kind of test: FLT1 SGC Tm panel (DSF). Particulars: for ΔTm: Compound concentration 10.0 uM.
Test [9] concerns the target 5-hydroxytryptamine receptor 1D (Homo sapiens) (UniProt P28221). Particulars: Compound concentration 10.0 uM.

Chain of Cyclin-dependent kinase-like 1 (Homo sapiens) (Q00532 whole entry): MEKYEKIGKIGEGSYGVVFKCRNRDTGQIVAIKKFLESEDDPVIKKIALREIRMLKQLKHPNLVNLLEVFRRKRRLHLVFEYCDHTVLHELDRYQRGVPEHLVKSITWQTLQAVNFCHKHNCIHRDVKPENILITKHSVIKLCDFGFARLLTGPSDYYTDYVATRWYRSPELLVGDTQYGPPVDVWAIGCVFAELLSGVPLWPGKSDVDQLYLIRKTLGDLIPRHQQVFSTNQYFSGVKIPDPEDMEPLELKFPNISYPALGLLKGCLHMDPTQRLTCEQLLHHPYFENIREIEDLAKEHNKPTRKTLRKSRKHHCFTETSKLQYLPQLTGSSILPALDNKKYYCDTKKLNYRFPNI
Chain of Vascular endothelial growth factor receptor 1 (Homo sapiens) (P17948 whole entry): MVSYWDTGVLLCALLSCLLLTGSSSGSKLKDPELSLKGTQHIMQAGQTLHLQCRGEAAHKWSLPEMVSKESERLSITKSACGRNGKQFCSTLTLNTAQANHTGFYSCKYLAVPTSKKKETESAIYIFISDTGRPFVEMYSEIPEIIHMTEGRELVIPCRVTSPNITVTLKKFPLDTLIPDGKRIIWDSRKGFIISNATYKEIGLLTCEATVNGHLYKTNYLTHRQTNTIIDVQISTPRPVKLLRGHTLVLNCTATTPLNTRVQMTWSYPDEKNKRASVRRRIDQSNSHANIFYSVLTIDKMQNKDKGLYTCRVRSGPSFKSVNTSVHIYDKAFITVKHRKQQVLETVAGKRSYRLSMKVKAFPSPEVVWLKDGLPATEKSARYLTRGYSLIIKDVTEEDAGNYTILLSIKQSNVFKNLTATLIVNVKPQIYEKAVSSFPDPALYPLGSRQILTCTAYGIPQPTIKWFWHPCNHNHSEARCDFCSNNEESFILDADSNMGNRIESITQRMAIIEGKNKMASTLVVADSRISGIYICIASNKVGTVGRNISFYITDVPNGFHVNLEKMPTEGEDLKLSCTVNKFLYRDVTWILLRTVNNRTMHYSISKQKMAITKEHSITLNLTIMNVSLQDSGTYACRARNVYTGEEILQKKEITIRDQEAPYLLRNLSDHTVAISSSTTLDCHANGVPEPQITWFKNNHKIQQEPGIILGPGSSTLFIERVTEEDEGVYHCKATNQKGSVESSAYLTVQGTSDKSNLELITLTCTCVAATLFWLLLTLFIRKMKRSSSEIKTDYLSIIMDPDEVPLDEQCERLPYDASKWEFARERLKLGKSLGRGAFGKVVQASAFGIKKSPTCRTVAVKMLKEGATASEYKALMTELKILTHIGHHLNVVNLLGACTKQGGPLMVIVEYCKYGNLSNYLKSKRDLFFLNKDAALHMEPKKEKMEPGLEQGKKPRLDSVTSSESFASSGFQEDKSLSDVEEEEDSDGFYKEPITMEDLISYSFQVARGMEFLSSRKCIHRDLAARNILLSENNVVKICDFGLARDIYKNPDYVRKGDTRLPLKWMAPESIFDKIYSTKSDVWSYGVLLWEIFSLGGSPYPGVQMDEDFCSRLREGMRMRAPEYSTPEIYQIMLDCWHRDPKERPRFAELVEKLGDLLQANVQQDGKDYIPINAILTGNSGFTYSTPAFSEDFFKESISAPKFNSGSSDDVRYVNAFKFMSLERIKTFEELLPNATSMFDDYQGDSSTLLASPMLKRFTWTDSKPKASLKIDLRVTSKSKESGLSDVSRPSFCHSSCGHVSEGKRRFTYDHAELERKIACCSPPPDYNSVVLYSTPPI
Chain of Serine/threonine-protein kinase pim-1 (Homo sapiens) (P11309 whole entry, looked up): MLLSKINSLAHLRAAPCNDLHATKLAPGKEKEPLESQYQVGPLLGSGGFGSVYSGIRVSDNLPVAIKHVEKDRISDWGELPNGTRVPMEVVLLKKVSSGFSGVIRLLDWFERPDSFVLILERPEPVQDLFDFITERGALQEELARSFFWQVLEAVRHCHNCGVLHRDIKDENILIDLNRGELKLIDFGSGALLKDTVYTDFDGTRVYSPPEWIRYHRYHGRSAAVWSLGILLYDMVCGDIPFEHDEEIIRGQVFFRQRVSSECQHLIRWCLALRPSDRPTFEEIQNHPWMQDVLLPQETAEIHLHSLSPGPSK
Chain of Sodium-dependent noradrenaline transporter (P23975 whole entry): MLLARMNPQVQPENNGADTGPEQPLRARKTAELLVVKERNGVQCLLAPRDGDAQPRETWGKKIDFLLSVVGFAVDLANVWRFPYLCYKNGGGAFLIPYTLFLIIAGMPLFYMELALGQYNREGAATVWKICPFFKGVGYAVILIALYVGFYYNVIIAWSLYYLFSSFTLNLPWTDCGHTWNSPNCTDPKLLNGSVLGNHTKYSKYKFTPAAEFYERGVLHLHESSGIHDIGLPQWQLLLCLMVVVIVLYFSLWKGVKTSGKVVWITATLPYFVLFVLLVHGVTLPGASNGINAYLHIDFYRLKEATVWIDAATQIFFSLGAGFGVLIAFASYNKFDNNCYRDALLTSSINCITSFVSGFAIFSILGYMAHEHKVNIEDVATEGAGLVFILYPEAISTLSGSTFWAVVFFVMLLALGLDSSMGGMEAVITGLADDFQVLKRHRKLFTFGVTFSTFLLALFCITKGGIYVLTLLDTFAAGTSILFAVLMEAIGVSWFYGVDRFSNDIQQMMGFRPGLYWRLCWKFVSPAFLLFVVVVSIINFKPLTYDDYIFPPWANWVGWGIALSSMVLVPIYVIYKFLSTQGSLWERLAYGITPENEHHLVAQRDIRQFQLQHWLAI
Chain of 5-hydroxytryptamine receptor 1D (Homo sapiens) (P28221 whole entry): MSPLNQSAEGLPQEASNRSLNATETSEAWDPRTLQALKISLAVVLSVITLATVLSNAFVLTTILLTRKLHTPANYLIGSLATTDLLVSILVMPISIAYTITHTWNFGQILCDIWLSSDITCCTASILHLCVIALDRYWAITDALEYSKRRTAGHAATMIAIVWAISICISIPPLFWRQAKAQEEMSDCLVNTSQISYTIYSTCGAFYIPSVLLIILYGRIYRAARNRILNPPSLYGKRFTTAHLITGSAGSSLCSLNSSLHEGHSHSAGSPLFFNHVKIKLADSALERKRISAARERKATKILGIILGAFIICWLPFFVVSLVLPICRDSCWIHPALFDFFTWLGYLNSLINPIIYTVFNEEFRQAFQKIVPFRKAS

Regarding `C[C@H](NC(=O)c1cn(C2(C#N)CC2)cn1)C(=O)Nc1nc(-c2cccc(-c3ccn(C)n3)c2)cs1`, the inhibition was 69.8% in test [1], 31.5% in test [4] and 36% in test [9]. Further, the delta Tm Staurosporine positive control in [2] came out at 5; in test [3], 18.1; in [5] it was 6.35; in [6], 18.7; in [7], 11.9; in test [8], 11.1. Further, the ΔTm in [2] is 0.189; in [3], 1.17; in test [5] it was 0.284; in [6], 0.335; in test [7], -0.391; in test [8], -0.217.
For the molecule `COC[C@H](NC(=O)c1ccn(S(C)(=O)=O)c1)C(=O)Nc1nc(-c2cccc(-c3ccn(C)n3)c2)cs1`, the inhibition in [1] is 45.5%; in test [4] it was 16%; in test [9], 16.7%. For the same molecule, the delta Tm Staurosporine positive control in test [2] stood at 5; in [3], 18.1; in test [5] it was 6.35; in [6] it was 18.7; in test [7], 11.9; in test [8], 11.1. The ΔTm in test [2] is 0.194; in test [3] it was 1.14; in test [5] it was 0.54; in test [6], 0.214; in test [7] it was -0.353; in [8] it was -0.0497.

One may read the inhibition as the share of the control response that was lost under treatment.
